Data: patent EP0107214A2, “Pharmaceutical compositions containing benzoyl-phenyl ureas with anti-tumour activity” (DUPHAR INTERNATIONAL RESEARCH B.V, priority 1982, dated 1984)
Values joined by “and” are separate entries in the source; they are usually repeats but may differ in a detail not shown here. Equal values may be shown once. Read-outs that look alike come from different tables or passages of the source.

Key:
Skin carcinoma (Ca 1025) = Skin carcinoma (Ca 1025) in AKR mice, tumor growth after intraperitoneal injection; format: in vivo; settings: single injection 20 mg
Procedure: (§1) Ridgeway Osteogenic Sarcoma (ROS) in AKR mice. The advantage of the use of such a localized, non-metastatic tumor for studies on drug effects is that pertuba- tions of tumor growth and longevity of the mice are attributable to a direct effect on the primary tumor. • III. Skin carcinoma (Ca 1025) in AKR mice. This tumor represents a second histologic cell type arising from skin and is less malignant than malignant melanoma.
(§2) The compounds were tested by intraperitoneal injections of suspensions of the compounds in an aqueous solution of polyvinyl pyrrolidone.
The compound PH 60-44 was also tested in this model.

B-16 malignant melanoma = B-16 malignant melanoma in C57BL/6 mice, tumor growth after intraperitoneal injection; format: in vivo
Procedure: as §2
Mice with malignant melanomas were injected with 20 mg or 40 mg diflubenzuron in suspension or with the suspension medium (blank).
Finally compound 2) was given in doses of 20 mg each on days 0, 1 and 2.
Animals with growing tumors were treated with 100 mg of diflubenzuron alone (suspended in an aqueous solution of polyvinylpyrrolidone) or in combination with a metabolic inhibitor or a metabolic inducer according to the schedule given in Table XI.

[1] = system: Ridgeway Osteogenic Sarcoma (ROS); assay: Ridgeway Osteogenic Sarcoma (ROS) in AKR mice, tumor growth after intraperitoneal injection; format: in vivo
Procedure: as §1, §2
Doses of diflubenzuron of 20 mg on day 0 (Table VI), 20 mg each on days 0 and 3; and 20 mg each on days 0, 1, 2, 5 and 6 (Table VII) were used in this test model. […]

melanoma B-16 cells = assay: Malignant melanoma B-16 cells in vitro, cell count by Coulter Counter; format: cell-based; settings: Mus musculus; for activity at 50 µg/mL: B16, 48 h, 50 ug/ml
Procedure: Cells of malignant melanomas B-16 grow as a monolayer. The doubling time of this type of cells in a cell--culture is 12 to 16 hours. For this experiment 6 multi-well tissue culture plates having a flat bottom with a surface area of 6 cm^2 appeared to be suitable and have been used.
On day 0 a quantity of melanoma B-16 cells were brought on the cell-culture plates.
The test compounds were sonicated and then incubated without cells for 3 hours at 37°C.
Then the compound to be tested was administered to the plates with melanoma B-16 cells in the desired quantity (each test was done in triplicate). Thereafter the plates were incubated in a C02-incubator for 20 hours at 37°C. Then the incubation was stopped by removing the culture medium containing the test compound, the cells were washed twice, and fresh culture medium was added.
48 Hours after starting the incubation step the number of cells on each plate was measured by means of a microcell Coulter Counter. The results so obtained have been expressed as "percentage of controll cell growth".
In the above experiment the compounds to be tested have been used in the form of a suspension. Since it is not quite clear how much of the active compounds is dissolved, the above results cannot be compared very well.
Therefore a number of compounds has been dissolved in ethanol.

[2] = 100 mg (20 mg days 0-4) after 2.4 mg cobaltous chloride (1.2 mg on days -2 and -1)
[3] = 100 mg (20 mg days 0-4) after 4 mg phenobarbital (1 mg on days -4 to -1)
[4] = 100 mg (20 mg days 0-4) after 6.4 mg 3-methylcholanthrene (1.6 mg on days -4 to -1)
[5] = 100 mg total, 20 mg each on day 0, 1, 2, 3 and 4
[6] = 2 x 20 mg, on day 0 and day 2 or 4
[7] = single injection 40 mg, i.p. suspension
[8] = 5 x 20 mg, days 0, 1, 2, 5 and 6

O=C(NC(=O)c1c(F)cccc1F)Nc1ccc(Cl)cc1 [Compound 1, 1-(2,6-difluorobenzoyl)-3-(4-chlorophenyl)urea]
% change in tumor mass day 1 (Skin carcinoma (Ca 1025)): -3.8 (35) % | % change in tumor mass day 2 (Skin carcinoma (Ca 1025)): 19.9 (7) % | % change in tumor mass day 1 (B-16 malignant melanoma; [2]): 14.4 (16) % | % change in tumor mass day 2 (B-16 malignant melanoma; [2]): 20.9 (12) % | % change in tumor mass day 3 (B-16 malignant melanoma; [2]): 36.4 (12) % | % change in tumor mass day 4 (B-16 malignant melanoma; [2]): 39.3 (12) % | % change in tumor mass day 5 (B-16 malignant melanoma; [2]): 59.7 (12) % | % change in tumor mass day 10 (B-16 malignant melanoma; [2]): 306 (12) % | % change in tumor mass day 14 (B-16 malignant melanoma; [2]): 782 (9) % | % change in tumor mass day 1 (B-16 malignant melanoma; [3]): -19.4 (23) % | % change in tumor mass day 2 (B-16 malignant melanoma; [3]): -10.4 (23) % | % change in tumor mass day 3 (B-16 malignant melanoma; [3]): 0.8 (23) % | % change in tumor mass day 4 (B-16 malignant melanoma; [3]): 21.7 (23) % | % change in tumor mass day 5 (B-16 malignant melanoma; [3]): 72.1 (23) % | % change in tumor mass day 10 (B-16 malignant melanoma; [3]): 293 (23) % | % change in tumor mass day 14 (B-16 malignant melanoma; [3]): 572 (10) % | % change in tumor mass day 1 (B-16 malignant melanoma; [4]): -29.2 (34) % | % change in tumor mass day 2 (B-16 malignant melanoma; [4]): -23.5 (34) % | % change in tumor mass day 3 (B-16 malignant melanoma; [4]): -20.6 (32) % | % change in tumor mass day 4 (B-16 malignant melanoma; [4]): -15.1 (29) % | % change in tumor mass day 5 (B-16 malignant melanoma; [4]): 5.7 (21) % | % change in tumor mass day 10 (B-16 malignant melanoma; [5]): 266 (17) % | % change in tumor mass day 14 (B-16 malignant melanoma; [5]): 378 (12) % | % change in tumor mass on day 11 (B-16 malignant melanoma; [5]): 891 (12) % | % change in tumor mass day 2 (B-16 malignant melanoma; 100 mg total, 20 mg each on day 0, 1, 2, 3 and 4, listed as diflubenzuron): -8.6 (17) % and -12.5 (22) % and -7.2 (12) % | % change in tumor mass day 1 (B-16 malignant melanoma; [6]): -11.7 (26) % | % change in tumor mass day 2 (B-16 malignant melanoma; [6]): 18.6 (26) % | % change in tumor mass day 3 (B-16 malignant melanoma; [6]): 92.6 (16) % | % change in tumor mass day 4 (B-16 malignant melanoma; [6]): 143 (26) % | % change in tumor mass day 5 (B-16 malignant melanoma; [6]): 178 (10) % | % change in tumor mass day 6 (B-16 malignant melanoma; [6]): 264 (26) % | % change in tumor mass day 15 (B-16 malignant melanoma; [6]): 1187 (16) % | reduction in tumor size within 24 hours of treatment (B-16 malignant melanoma; initial injection of 20 mg, two experiments, listed as diflubenzuron): 11.7% and 13.4% | initial decrease (tumor size) (B-16 malignant melanoma; injection of 40 mg): 22% | % change in tumor mass day 2 (B-16 malignant melanoma; single injection 20 mg, i.p. suspension): 18.6(26) % | % change in tumor mass day 1 (B-16 malignant melanoma; single injection 20 mg, i.p. suspension, listed as diflubenzuron): -11.7(26) % and -13.4(22) % | initial doubling time (in days) 0-2 days (B-16 malignant melanoma; single injection 20 mg, calculated from change within 48 hours after treatment, listed as diflubenzuron): 10.4 days and 10.4(26) days | % change in tumor mass day 1 (B-16 malignant melanoma; [7]): -22.4(8) % | % change in tumor mass day 2 (B-16 malignant melanoma; [7]): -14.7(8) % | initial doubling time (in days) 0-2 days (B-16 malignant melanoma; single injection 40 mg, negative = time for decrease to one-half size): -6.7(8) days | % change in tumor mass day 1 ([1]; 20 mg on day 0): 14.4 (29) % | % change in tumor mass day 2 ([1]; 20 mg on day 0): 48.5 (19) % | % change in tumor mass day 1 ([1]; 2 x 20 mg, days 0 and 3): 32.0 (10) % | % change in tumor mass day 3 ([1]; 2 x 20 mg, days 0 and 3): 104 (10) % | % change in tumor mass day 4 ([1]; 2 x 20 mg, days 0 and 3): 213 (10) % | % change in tumor mass day 5 ([1]; 2 x 20 mg, days 0 and 3): 298 (10) % | % change in tumor mass day 7 ([1]; 2 x 20 mg, days 0 and 3): 511 (10) % | % change in tumor mass day 14 ([1]; 2 x 20 mg, days 0 and 3): 1682 (10) % | % change in tumor mass day 21 ([1]; 2 x 20 mg, days 0 and 3): 4051 (10) % | % change in tumor mass day 1 [1, 8]: 12.2 (10) % | % change in tumor mass day 2 [1, 8]: 43.3 (10) % | % change in tumor mass day 5 [1, 8]: 285 (10) % | % change in tumor mass day 7 [1, 8]: 423 (10) % | % change in tumor mass day 14 [1, 8]: 2495 (10) % | % change in tumor mass day 21 [1, 8]: 8880 (8) % | activity at 50 µg/mL (melanoma B-16 cells; dissolved in ethanol, read-out: Percentage of controll cell growth (solution)): 48% | activity at 50 µg/mL (melanoma B-16 cells; suspension, read-out: Percentage of controll cell growth (suspension)): 79% | activity at 500 µg/mL (melanoma B-16 cells; B16, suspension, 20 hours incubation, cells counted at 48 hours, read-out: Percentage of controll cell growth when tested in an amount of 5 x 10^2 µg/ml): 78% | activity at 5000 µg/mL (melanoma B-16 cells; B16, suspension, 20 hours incubation, cells counted at 48 hours, read-out: Percentage of controll cell growth when tested in an amount of 5 x 10^3 µg/ml): 41%
